Converted amounts (≈) assume the structure as drawn.
Tests used:
[1] = test system: Mycolicibacterium fortuitum; experiment: In vitro anti-mycobacterial activity expressed as minimum inhibitory concentration against Mycobacterium fortuitum ATCC 6841; format: functional
[2] = test system: Mycobacterium tuberculosis; experiment: Percent reduction of mycobacterial growth using Mycobacterium tuberculosis H37Rv at a concentration of 12.5 ug/mL; format: functional
[3] = test system: Mycobacterium tuberculosis; experiment: In vitro antituberculosis activity against Mycobacterium tuberculosis H37Rv using the BACTEC 12B medium using a micro dilution assay( MABA); format: functional
[4] = organism: Mus musculus; experiment: Tested in vitro for killing of Mycobacterium tuberculosis Erdman (ATCC 35801) in monolayers of mouse bone marrow macrophages and 99% reduction was reported using level 3 assay; format: functional; design: unit not given here
[5] = test system: Mycobacterium tuberculosis; experiment: Compound was evaluated for antituberculosis activity against Mycobacterium tuberculosis in level 2 assay; format: functional
[6] = Ratio between EC90 and MIC was reported; format: functional
[7] = Tested in vitro for killing of Mycobacterium tuberculosis Erdman (ATCC 35801) in monolayers of mouse bone marrow macrophages and 90% reduction was reported using level 3 assay; format: functional; design: unit not given here
[8] = test system: Mycobacterium tuberculosis; experiment: Compound was evaluated for antituberculosis activity against Mycobacterium tuberculosis in level 2 assay (performed using BACTEC in which MIC of RMP was found as 0.125 […]); format: functional
[9] = Selectivity index (IC50/MIC) was determined; format: functional
[10] = test system: Mycobacterium tuberculosis; experiment: Concentration required for inhibition of growth of Mycobacterium tuberculosis in level 2 assay; format: functional, organism-based

Structure (SMILES) | MIC [1] | inhibition at 12.5 µg/mL [2] | MIC [3] | other results
S=C(Nc1ccc(Cl)cc1)Nc1ccc(-c2n[nH]c(=S)n2-c2ccccc2)cc1 | 64 µg/mL (≈ 146 µM) | 11% | > 12.5 µg/mL | –
CCNC(=S)Nc1ccc(-c2n[nH]c(=S)n2-c2ccccc2)cc1 | 64 µg/mL (≈ 180 µM) | 17% | > 12.5 µg/mL | –
C=CCNC(=S)Nc1ccc(-c2n[nH]c(=S)n2-c2ccccc2)cc1 | 64 µg/mL (≈ 174 µM) | 12% | > 12.5 µg/mL | –
Cn1c(-c2ccc(NC(=S)Nc3ccccc3)cc2)n[nH]c1=S | 64 µg/mL (≈ 187 µM) | 29% | > 12.5 µg/mL | –
C=CCNC(=S)Nc1ccc(-c2n[nH]c(=S)n2C)cc1 | 64 µg/mL (≈ 210 µM) | 94% | 12.5 µg/mL (≈ 40.9 µM) | EC99 [4]: >100; MIC [5]: > 12.5 µg/mL; Ratio [6]: < 0.0558; EC90 [7]: 0.698
C=CCn1c(-c2ccc(NC(=S)Nc3ccccc3)cc2)n[nH]c1=S | 32 µg/mL (≈ 87.1 µM) | 0% | > 12.5 µg/mL | –
S/C(=N\C1CCCCC1)Nc1ccc(-c2nnc(S)n2-c2ccccc2)cc1 | 64 µg/mL (≈ 156 µM) | 13% | > 12.5 µg/mL | –
C=CCNC(=S)Nc1ccc(-c2n[nH]c(=S)n2CC)cc1 | 64 µg/mL (≈ 200 µM) | 89% | > 12.5 µg/mL | –
C=CCNC(=S)Nc1ccc(-c2nnc(SCc3ccc(Cl)cc3Cl)n2C)cc1 | > 128 µg/mL | 94% | < 12.5 µg/mL | MIC [8]: 6.25 µg/mL; Ratio [9]: > 1.6; IC50 [10]: > 10 µg/mL
C=CCn1c(-c2ccc(NC(=S)NC)cc2)n[nH]c1=S | > 128 µg/mL | 0% | > 12.5 µg/mL | –
CCn1c(S)nnc1-c1ccc(N/C(S)=N/C2CCCCC2)cc1 | 64 µg/mL (≈ 177 µM) | 10% | > 12.5 µg/mL | –
C=CCNC(=S)Nc1ccc(-c2n[nH]c(=S)n2CC=C)cc1 | 32 µg/mL (≈ 96.5 µM) | 71% | > 12.5 µg/mL | –
C=CCNC(=S)Nc1ccc(-c2nnc(SCc3ccc(Cl)cc3Cl)n2-c2ccccc2)cc1 | > 128 µg/mL | 63% | > 12.5 µg/mL | –
CNC(=S)Nc1ccc(-c2n[nH]c(=S)n2C)cc1 | 64 µg/mL (≈ 229 µM) | 93% | < 12.5 µg/mL | EC99 [4]: >100; MIC [5]: > 12.5 µg/mL; EC90/MIC [6]: < 0.0297; EC90 [7]: 0.371
CCNC(=S)Nc1ccc(-c2n[nH]c(=S)n2C)cc1 | 64 µg/mL (≈ 218 µM) | 90% | < 12.5 µg/mL | EC99 [4]: 48.65; MIC [5]: > 12.5 µg/mL; Ratio [6]: < 0.0242; EC90 [7]: 0.303
S/C(=N\C1CCCCC1)Nc1ccc(-c2nnc(S)n2C2CCCCC2)cc1 | > 128 µg/mL | 12% | > 12.5 µg/mL | –
Cn1c(S)nnc1-c1ccc(N/C(S)=N/C2CCCCC2)cc1 | 32 µg/mL (≈ 92.1 µM) | 10% | > 12.5 µg/mL | –
C=CC/N=C(\S)Nc1ccc(-c2nnc(S)n2C2CCCCC2)cc1 | 32 µg/mL (≈ 85.7 µM) | 35% | > 12.5 µg/mL | –
CNC(=S)Nc1ccc(-c2nnc(SCc3ccccc3)n2C)cc1 | > 128 µg/mL | 85% | > 12.5 µg/mL | –
CNC(=S)Nc1ccc(-c2n[nH]c(=S)n2-c2ccccc2)cc1 | 64 µg/mL (≈ 187 µM) | 27% | > 12.5 µg/mL | –
CO[C@H]1/C=C/O[C@@]2(C)Oc3c(C)c(O)c4c(O)c(c(/C=N/N5CCN(C)CC5)c(O)c4c3C2=O)NC(=O)/C(C)=C\C=C\[C@H](C)[C@H](O)[C@@H](C)[C@@H](O)[C@@H](C)[C@H](OC(C)=O)[C@@H]1C [RIFAMPIN] | 0.25 µg/mL (≈ 0.304 µM) | – | – | EC99 [4]: 0.451; EC90 [7]: 0.007
C=CCNC(=S)Nc1ccc(-c2n[nH]c(=S)n2CCc2ccccc2)cc1 | 64 µg/mL (≈ 162 µM) | 6% | > 12.5 µg/mL | –
NC[C@H]1O[C@H](O[C@H]2[C@H](O)[C@@H](O[C@H]3O[C@H](CO)[C@@H](O)[C@H](N)[C@H]3O)[C@H](N)C[C@@H]2N)[C@H](N)C[C@@H]1O [TOBRAMYCIN] | 32 µg/mL (≈ 68.4 µM) | – | – | –
S=C(Nc1ccccc1)Nc1ccc(-c2n[nH]c(=S)n2-c2ccccc2)cc1 | > 128 µg/mL | 13% | > 12.5 µg/mL | –

Source: ChEMBL document CHEMBL1134120, “Some 3-thioxo/alkylthio-1,2,4-triazoles with a substituted thiourea moiety as possible antimycobacterials” (Bioorg Med Chem Lett, 2001)
